# Measured values published in PMC9143880, “Improving Antimicrobial Activity and Physico-Chemical Properties by Isosteric Replacement of 2-Aminothiazole with 2-Aminooxazole” (Pharmaceuticals, 2022).
# Read-outs that look alike come from different tables or passages of the source.
# Key:
# [1] = tested on: Mtb laboratory ID MATI; assay type: cell-based, Mycobacterium tuberculosis; settings: MDR strain MATI, CLSI breakpoints 2021
# [2] = tested on: Mtb MATI (MDR clinical isolate); test: microbe, parasite or virus in culture; assay type: cell-based; settings: Mycobacterium tuberculosis, read-out: MIC Mtb MATI
# [3] = tested on: Mtb H37Rv CNCTC My 331/88 (ATCC 27294); test: microbe, parasite or virus in culture; assay type: cell-based; settings: Mycobacterium tuberculosis, read-out: MIC Mtb H37Rv
# [4] = tested on: Mtb laboratory ID IZAK; assay type: cell-based, Mycobacterium tuberculosis; settings: MDR strain IZAK, CLSI breakpoints 2020
# [5] = tested on: Mtb IZAK (MDR clinical isolate); test: microbe, parasite or virus in culture; assay type: cell-based; settings: Mycobacterium tuberculosis, read-out: MIC Mtb IZAK
# [6] = tested on: M. tuberculosis H37Rv; settings: whole cell, cited from earlier work
# [7] = tested on: Enterococcus faecalis CCM 4224 (ATCC 29212); test: Antibacterial microdilution broth (EUCAST); assay type: cell-based; settings: for MIC: Enterococcus faecalis
# [8] = tested on: Staphylococcus aureus subsp. aureus CCM 4223 (ATCC 29213); test: Antibacterial microdilution broth (EUCAST); assay type: cell-based; settings: for MIC: Staphylococcus aureus
# [9] = tested on: Klebsiella pneumoniae CCM 4415 (ATCC 10031); test: Antibacterial microdilution broth (EUCAST); assay type: cell-based; settings: internal quality control, 24 h
# [10] = tested on: Pseudomonas aeruginosa CCM 3955 (ATCC 27853); test: Antibacterial microdilution broth (EUCAST); assay type: cell-based; settings: for MIC: Pseudomonas aeruginosa
# [11] = tested on: Staphylococcus epidermidis CCM 4418 (ATCC 12228); test: Antibacterial microdilution broth (EUCAST); assay type: cell-based; settings: for MIC: Staphylococcus epidermidis
# [12] = tested on: Staphylococcus aureus subsp. aureus (MRSA) CCM 4750 (ATCC 43300); test: Antibacterial microdilution broth (EUCAST); assay type: cell-based; settings: for MIC: Staphylococcus aureus
# [13] = tested on: Acinetobacter baumannii DSM 30007 (ATCC 19606); test: Antibacterial microdilution broth (EUCAST); assay type: cell-based; settings: for MIC: Acinetobacter baumannii
# [14] = tested on: Escherichia coli CCM 3954 (ATCC 25922); test: Antibacterial microdilution broth (EUCAST); assay type: cell-based; settings: for MIC: Escherichia coli
# [15] = tested on: M. aurum DSM 43999 (ATCC 23366); test: Antimycobacterial MIC, microdilution broth / resazurin; assay type: cell-based; settings: Mycolicibacterium aurum, 72 h, read-out: MIC M. aurum
# [16] = tested on: Mycobacterium tuberculosis H37Ra ITM-M006710 (ATCC 9431); test: Antimycobacterial MIC, microdilution broth / Alamar Blue (resazurin); assay type: cell-based; settings: Mycobacterium tuberculosis
# [17] = tested on: M. kansasii DSM 44162 (ATCC 12478); test: Antimycobacterial MIC, microdilution broth / resazurin; assay type: cell-based; settings: Mycobacterium kansasii, read-out: MIC M. kansasii
# [18] = tested on: M. avium DSM 44156 (ATCC 25291); test: as above; assay type: cell-based, Mycobacterium avium; settings: Mycobacterium avium, read-out: MIC M. avium
# [19] = tested on: M. smegmatis DSM 43465 (ATCC 607); test: as above; assay type: cell-based; settings: Mycolicibacterium smegmatis, read-out: MIC M. smegmatis
# [20] = RP-UHPLC lipophilicity parameter log k’w; assay type: physicochemical; settings: for log k’w: RP-UHPLC, acetonitrile/water, log k extrapolated to 0% acetonitrile; for logkw: experimental lipophilicity parameter
# Procedure, shortened: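 Retention was measured once per eluent composition: subtype I at 40/45/50% and subtype II at 20/30/40% acetonitrile in water, isocratic RP-UHPLC. log k values from these runs gave the lipophilicity index log k’w.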
# [21] = tested on: Aspergillus fumigatus ATCC 204305; test: Antifungal microdilution broth (EUCAST)
# [22] = tested on: Aspergillus flavus CCM 8363; test: Antifungal microdilution broth (EUCAST)
# [23] = tested on: Candida krusei CCM 8271 (ATCC 6258); test: Antifungal microdilution broth (EUCAST)
# [24] = tested on: Trichophyton interdigitale CCM 8377 (ATCC 9533); test: Antifungal microdilution broth (EUCAST)
# [25] = tested on: Lichtheimia corymbifera CCM 8077; test: Antifungal microdilution broth (EUCAST)
# [26] = tested on: Candida albicans CCM 8320 (ATCC 24433); test: Antifungal microdilution broth (EUCAST)
# [27] = tested on: Candida parapsilosis CCM 8260 (ATCC 22019); test: Antifungal microdilution broth (EUCAST)
# [28] = tested on: Mycobacterium tuberculosis H37Ra ITM-M006710 (ATCC 9431); parameters: method as in PMID 30108959; settings: cited from earlier work
# [29] = tested on: Candida tropicalis CCM 8264 (ATCC 750); test: Antifungal microdilution broth (EUCAST)
# [30] = Kinetic water solubility (water-induced precipitation of DMSO stock, UHPLC); assay type: physicochemical; settings: 18 °C, water
# [31] = tested on: HepG2 cells; test: HepG2 cytotoxicity screening (CellTiter 96); assay type: cell-based, human
# [32] = internal quality control, 95% growth inhibition, 530 nm, 24 h, read-out: MIC (spectrophotometric detection)
# [33] = internal quality control, naked eye, 24 h, read-out: MIC (visual detection)
# [34] = 120 h, Middlebrook 7H9, resazurin after 120 h, read-out: Mtb H37Ra MIC
smiles,measurement,setting,value
"CC[C@@H](CO)NCCN[C@@H](CC)CO [EMB, ethambutol]",Concentration (susceptibility profile),[1],0.5 µg/mL
same,Susceptibility,[1],sensitive
same,MIC,[2],1.56 µg/mL
same,MIC,[3],0.39 µg/mL
same,Concentration (susceptibility profile),[4],0.5 µg/mL
same,Susceptibility,[4],sensitive
same,MIC,[5],1.56 µg/mL
O=C(Nc1nc(-c2ccccn2)cs1)c1ccncc1 [B],MIC,[6],1.6 to 3.1 µM
"CNC(C)C1CCC(N)C(OC2C(N)CC(N)C(OC3OCC(C)(O)C(NC)C3O)C2O)O1 (centres unmarked) [gentamicin, reference compound]",MIC,[7]; [32],> 8 µg/mL
same,MIC,[7]; [33],> 8 µg/mL
same,MIC,[8]; [32],1 µg/mL
same,MIC,[8]; [33],0.5 µg/mL
same,MIC,"[9]; 95% growth inhibition, 530 nm, read-out: MIC (spectrophotometric detection)",0.5 µg/mL
same,MIC,"[9]; naked eye, read-out: MIC (visual detection)",0.5 µg/mL
same,MIC,[10]; [32],0.5 µg/mL
same,MIC,[10]; [33],0.5 µg/mL
same,MIC,[11]; [32],0.0625 µg/mL
same,MIC,[11]; [33],0.0625 µg/mL
same,MIC,[12]; [32],> 8 µg/mL
same,MIC,[12]; [33],> 8 µg/mL
same,MIC,[13]; [32],8 µg/mL
same,MIC,[13]; [33],8 µg/mL
same,MIC,[14]; [32],1 µg/mL
same,MIC,[14]; [33],1 µg/mL
"NNC(=O)c1ccncc1 [INH, isoniazid, reference compound]",MIC,[15],3.91 µg/mL
same,MIC,[16]; [34],0.25 µg/mL
same,Susceptibility,[1],resistant
same,MIC,[17]; resazurin after 96 h,3.12 to 6.25 µg/mL
same,MIC,[18]; resazurin after 96 h,1000 µg/mL
same,MIC,[19]; resazurin after 48 h,15.6 to 31.2 µg/mL
same,MIC,[2],12.5 µg/mL
same,MIC,[3],0.39 µg/mL
same,MIC,[5],12.5 µg/mL
O=C(Nc1nc(-c2ccccc2)cs1)c1cnccn1 [Compound 17a],log k’w,[20],2.365
same,logkw,[20],2.365
same,MIC EF,[7]; 24h incubation,insoluble
same,MIC SA,[8]; 24h incubation,insoluble
same,MIC AF,[21]; 24h incubation,insoluble
same,MIC,[17]; resazurin after 96 h,> 50 µg/mL
same,MIC PA,[10]; 72h incubation,insoluble
same,MIC AFla,[22]; 24h incubation,insoluble
same,MIC SE,[11]; 24h incubation,insoluble
same,MIC CK,[23]; 24h incubation,insoluble
same,MIC TI,[24]; 72h incubation,insoluble
same,MIC LC,[25]; 24h incubation,insoluble
same,MIC CA,[26]; 24h incubation,insoluble
same,MIC,[19]; resazurin after 48 h,> 250 µg/mL
same,MIC MRSA,[12]; 24h incubation,insoluble
same,MIC CP,[27]; 24h incubation,insoluble
same,MIC AB,[13]; 24h incubation,insoluble
same,Mtb H37Ra MIC,[28],>50 [11] µg/mL
same,MIC EC,[14]; 24h incubation,insoluble
same,MIC CT,[29]; 24h incubation,insoluble
O=C(Nc1nc(-c2ccc(F)cc2)cs1)c1cncc(Cl)n1 [A],MIC,[6]; recalculated to µM,2.3 µM
same,MIC,[6],0.78 µg/mL
O=C(Nc1ncco1)c1ccnc(Cl)c1 [Compound 6b],log k’w,[20],1.136
same,logkw,[20],1.136
same,MIC,[15],3.12 µg/mL
same,MIC,[16]; [34],3.12 µg/mL
same,MIC,"[16]; recalculated from µg/mL, read-out: MICH37Ra",14 µM
same,MIC,"[7]; 24h incubation, read-out: MIC EF",500 µM
same,MIC,"[8]; 24h incubation, read-out: MIC SA",250 µM
same,MIC,"[21]; Aspergillus fumigatus, ATCC204305, 24 h, read-out: MIC AF",125 µM
same,solubility,"[30]; water (DMSO stock diluted with water), kinetic from dmso stock, read-out: solubility in water",> 500 µM
same,solubility,"[30]; kinetic method, DMSO stock diluted to 500 μM",no precipitate
same,MIC,[17]; 96 h,3.12 µg/mL
same,MIC,"[10]; 72h incubation, read-out: MIC PA",> 500 µM
same,MIC,[18]; 96 h,3.12 µg/mL
same,MIC,"[22]; Aspergillus flavus, CCM8363, 24 h, read-out: MIC AFla",500 µM
same,MIC,"[11]; 24h incubation, read-out: MIC SE",62.5 µM
same,MIC,"[23]; Pichia kudriavzevii, 24 h, read-out: MIC CK",250 µM
same,MIC,"[24]; Trichophyton interdigitale, 72 h, read-out: MIC TI",125 µM
same,MIC,"[25]; Lichtheimia corymbifera, CCM8077, 24 h, read-out: MIC LC",62.5 µM
same,MIC,"[26]; Candida albicans, 24 h, read-out: MIC CA",31.2 µM
same,MIC,[19]; 48 h,6.25 µg/mL
same,MIC,"[12]; 24h incubation, read-out: MIC MRSA",62.5 µM
same,MIC,[2],3.13 µg/mL
same,MIC,[3],6.25 µg/mL
same,MIC,"[27]; Lodderomyces parapsilosis, 24 h, read-out: MIC CP",250 µM
same,MIC,"[13]; 24h incubation, read-out: MIC AB",62.5 µM
same,MIC,[5],3.13 µg/mL
same,MIC,"[14]; 24h incubation, read-out: MIC EC",62.5 µM
same,melting point,,158 to 162 °C
same,MIC,"[29]; Candida tropicalis, 24 h, read-out: MIC CT",500 µM
same,IC50,"[31]; Homo sapiens, HepG2, 24 h, 24 h incubation, CellTiter 96, * above highest tested concentration, ** limited by insolubility in medium",664 µM
same,SI,[31]; SI = IC50 (µM) HepG2 / MICH37Ra (µM),47.5
